This note sets out measurements from US10047105B2, “Gyrase inhibitors” (Merck Sharp & Dohme Corp., priority 2009, dated 2018).

In brackets after ≈: the same amount, converted by molar mass. A value given as a limit tells only on which side of the number the result lay.

Holding throughout (format): cell-based
The subject of one assay is E. coli 8 ATCC 25922. The assay can be described thus: MIC, E. coli 8 (wt). Particulars: E. coli 8 (EC8).
The next assay deals with S. aureus ATCC 13709. In words: MIC, antibacterial potency, S. aureus. The note with it: S. aureus (SA); in µg/mL.
The test system of the next assay is S. pneumoniae ATCC 51916. The assay can be described thus: MIC, S. pneumoniae. Particulars: S. pneumoniae (Spn52); in µg/mL.

The compound `CCc1[nH]c2nc(Sc3cnc4cccnc4c3)nc(N3CCC(CNS(C)(=O)=O)C3)c2c1Cl` (stereo not drawn) [701,042] gave an MIC EC8 against E. coli 8 ATCC 25922 of over 64 µg/mL. Besides, the “MIC, SA” value against S. aureus ATCC 13709 is listed as “<=0.5”. In addition, the “MIC Spn52” value in the assay on S. pneumoniae ATCC 51916 was 1.

Compound `CCOC(=O)C(=O)NCC1CCN(c2nc(Sc3cnc4cccnc4c3)nc3[nH]c(CC)c(Cl)c23)C1` (stereo not drawn) [701,043] yielded an MIC EC8 with E. coli 8 ATCC 25922 of over 64 µg/mL. The “MIC, SA” value with S. aureus ATCC 13709 is 1. In the assay with S. pneumoniae ATCC 51916, the “MIC Spn52” value is reported as over 64.

As for `CCc1[nH]c2nc(Sc3cnc4cccnc4c3)nc(N3CCC(CNC(C)=O)C3)c2c1Cl` (stereo not drawn) [701,044], in the assay with E. coli 8 ATCC 25922, the MIC EC8 was over 64 µg/mL. Besides, the “MIC, SA” value in the assay with S. aureus ATCC 13709 was “<=0.5”. Besides, the “MIC Spn52” value in the assay on S. pneumoniae ATCC 51916 amounted to 1.

Compound `CCc1[nH]c2nc(Sc3cnc4cccnc4c3)nc(N3CCC(CNS(=O)(=O)c4ccccc4)C3)c2c1Cl` (stereo not drawn) [701,045] displayed an MIC EC8 against E. coli 8 ATCC 25922 of over 64 µg/mL. For the same compound, the “MIC, SA” value in the assay on S. aureus ATCC 13709 is recorded as “<=0.5”. The “MIC Spn52” value with S. pneumoniae ATCC 51916 is given as 1.

In the assay on E. coli 8 ATCC 25922, `CCc1[nH]c2nc(Sc3cnc4cccnc4c3)nc(N3CCC(CNS(=O)(=O)c4cnoc4C)C3)c2c1Cl` (stereo not drawn) [701,046] had an MIC EC8 of over 64 µg/mL. Moreover, the “MIC, SA” value against S. aureus ATCC 13709 was determined as 2. The “MIC Spn52” value in the assay on S. pneumoniae ATCC 51916 is recorded as 4.

Consider `CCc1[nH]c2nc(Sc3cnc4cccnc4c3)nc(N3CCC(CNC(=O)c4nccs4)C3)c2c1Cl` (stereo not drawn) [701,047], for which, in the assay with E. coli 8 ATCC 25922, the MIC EC8 is over 64 µg/mL. In addition, in the assay with S. aureus ATCC 13709, the “MIC, SA” value is “<=0.5”. Also, in the assay with S. pneumoniae ATCC 51916, the “MIC Spn52” value is listed as “<=0.5”.

Take `CCc1[nH]c2nc(Sc3ccc4cc(C(=O)N5CC(O)C5)c(C)[n+]([O-])c4c3)nc(N3CC[C@@H](N)C3)c2c1Cl` [701,048]: the MIC EC8 in the assay on E. coli 8 ATCC 25922 was over 64 µg/mL. Moreover, the “MIC, SA” value against S. aureus ATCC 13709 is on record as 16. Besides, in the assay on S. pneumoniae ATCC 51916, the “MIC Spn52” value is on record as over 64.

Regarding `CCc1[nH]c2nc(Sc3ccc4cncnc4c3)nc(N3CC[C@@H](N)C3)c2c1Cl` [701,049], the MIC EC8 against E. coli 8 ATCC 25922 worked out at 8 µg/mL (≈ 18.8 µM). In the assay with S. aureus ATCC 13709, the “MIC, SA” value is reported as “<=0.5”. Further, the “MIC Spn52” value with S. pneumoniae ATCC 51916 is recorded as “<=0.5”.

For `CCc1[nH]c2nc(Sc3ccc4cncnc4c3)nc(N3CC(N)C3)c2c1Cl` [701,050], in the assay with E. coli 8 ATCC 25922, the MIC EC8 worked out at 32 µg/mL (≈ 77.7 µM). In addition, in the assay on S. aureus ATCC 13709, the “MIC, SA” value is recorded as “<=0.5”. The “MIC Spn52” value with S. pneumoniae ATCC 51916 is listed as “<=0.5”.

In turn, `CCc1[nH]c2nc(Sc3ccc4c[n+]([O-])cnc4c3)nc(N3CC[C@@H](N)C3)c2c1Cl` [701,051] showed an MIC EC8 with E. coli 8 ATCC 25922 of over 32 µg/mL. The “MIC, SA” value against S. aureus ATCC 13709 worked out at 2. For the same compound, the “MIC Spn52” value in the assay with S. pneumoniae ATCC 51916 is recorded as 4.

In the assay on E. coli 8 ATCC 25922, `CCc1[nH]c2nc(Oc3cncnc3)nc(N3CC4C(C3)C4NC(C)=O)c2c1Br` (stereo not drawn) [701,052] came in with an MIC EC8 of over 16 µg/mL. Besides, in the assay on S. aureus ATCC 13709, the “MIC, SA” value was determined as 4. Further, the “MIC Spn52” value against S. pneumoniae ATCC 51916 is on record as 8.

Regarding `CCc1[nH]c2nc(Oc3ccc4cccnc4c3)nc(Oc3ccc4cccnc4c3)c2c1Br` [701,054], the MIC EC8 in the assay with E. coli 8 ATCC 25922 was over 64 µg/mL. In the assay with S. aureus ATCC 13709, the “MIC, SA” value was “<=0.5”. Moreover, the “MIC Spn52” value against S. pneumoniae ATCC 51916 was 1.

Take `CCc1[nH]c2nc(Oc3ccc4cccnc4c3)nc(N3CC4C(N)C4C3)c2c1Cl` (stereo not drawn) [701,055]: the MIC EC8 against E. coli 8 ATCC 25922 is over 64 µg/mL. Further, the “MIC, SA” value in the assay with S. aureus ATCC 13709 was over 64. In the assay on S. pneumoniae ATCC 51916, the “MIC Spn52” value is given as over 64.

For the compound `CCc1[nH]c2nc(Oc3ccc4ccc[n+]([O-])c4c3)nc(Oc3ccc4ccc[n+]([O-])c4c3)c2c1Br` [701,056], the MIC EC8 in the assay with E. coli 8 ATCC 25922 was over 64 µg/mL. Besides, the “MIC, SA” value against S. aureus ATCC 13709 is given as 4. In addition, the “MIC Spn52” value in the assay with S. pneumoniae ATCC 51916 amounted to 8.

In the assay with E. coli 8 ATCC 25922, `CCc1[nH]c2nc(Oc3ccc4c(c3)ncc[n+]4[O-])nc(Oc3ccc4c(c3)ncc[n+]4[O-])c2c1Cl` [701,057] returned an MIC EC8 of over 64 µg/mL. In the assay on S. aureus ATCC 13709, the “MIC, SA” value was 8. Moreover, the “MIC Spn52” value in the assay on S. pneumoniae ATCC 51916 is recorded as 32.

In the assay with E. coli 8 ATCC 25922, `CCc1[nH]c2nc(Oc3ccc4c(c3)ncc[n+]4[O-])nc(Oc3ccc4c(c3)ncc[n+]4[O-])c2c1Br` [701,058] registered an MIC EC8 of over 32 µg/mL. Moreover, the “MIC, SA” value in the assay with S. aureus ATCC 13709 is “<=0.5”. For the same compound, in the assay on S. pneumoniae ATCC 51916, the “MIC Spn52” value is given as “<=0.5”.

As to `CCc1[nH]c2nc(Oc3ccc4c(c3)ncc[n+]4[O-])nc(Oc3ccc4nccnc4c3)c2c1Br` [701,059], the MIC EC8 with E. coli 8 ATCC 25922 was over 64 µg/mL. For the same compound, in the assay on S. aureus ATCC 13709, the “MIC, SA” value is recorded as “<=0.5”. Moreover, the “MIC Spn52” value with S. pneumoniae ATCC 51916 is “<=0.5”.
